# Data from patent US8410112B2, “Compounds useful as inhibitors of ATR kinase” (Vertex Pharmaceuticals Incorporated, priority 2008, dated 2013).
# Molecular target: T1, full-length ATR (Homo sapiens, UniProt Q13535)
# T1 construct: in the presence of 5 nM full-length ATR
# Assay: ATR Inhibition Assay (radioactive-phosphate incorporation)
# Type: biochemical
# Settings: Ki(app); 5 nM full-length ATR, 10 μM ATP, 800 μM target peptide, 25° C.
# Method: Test compounds were screened for their ability to inhibit ATR kinase using a radioactive-phosphate incorporation assay. Assays were carried out in a mixture of 50 mM
# Tris/HCl (pH 7.5), 10 mM MgCl2 and 1 mM DTT. Final substrate concentrations were 10 μM [γ-33P]ATP (3 mCi 33 P ATP/mmol ATP, Perkin Elmer) and 800 μM target peptide ([…]). Assays were carried out at 25° C. in the presence of 5 nM full-length ATR. An assay stock buffer solution was prepared containing all of the reagents listed above, with the exception of ATP and the test compound of interest. […] The plate was pre-incubated for 10 minutes at 25° C. and the reaction initiated by addition of 15 μL [γ-33P]ATP (final concentration 10 μM).
# The reaction was stopped after […] by the addition of 30 μL 0.1M phosphoric acid containing 2 mM ATP. A multiscreen phosphocellulose filter 96-well plate (Millipore, Cat no. MAPHN0B50) was pretreated with 100 μL 0.2M phosphoric acid prior to the addition of 45 μL of the stopped assay mixture. The plate was washed with 5×200 μL 0.2M phosphoric acid.
# After removing mean background values for all of the data points, Ki(app) data were calculated from non-linear regression analysis of the initial rate data using the Prism software package (GraphPad Prism version 3.0cx for Macintosh, GraphPad Software, San Diego Calif., USA).
# T1 sequence (Q13535 whole entry): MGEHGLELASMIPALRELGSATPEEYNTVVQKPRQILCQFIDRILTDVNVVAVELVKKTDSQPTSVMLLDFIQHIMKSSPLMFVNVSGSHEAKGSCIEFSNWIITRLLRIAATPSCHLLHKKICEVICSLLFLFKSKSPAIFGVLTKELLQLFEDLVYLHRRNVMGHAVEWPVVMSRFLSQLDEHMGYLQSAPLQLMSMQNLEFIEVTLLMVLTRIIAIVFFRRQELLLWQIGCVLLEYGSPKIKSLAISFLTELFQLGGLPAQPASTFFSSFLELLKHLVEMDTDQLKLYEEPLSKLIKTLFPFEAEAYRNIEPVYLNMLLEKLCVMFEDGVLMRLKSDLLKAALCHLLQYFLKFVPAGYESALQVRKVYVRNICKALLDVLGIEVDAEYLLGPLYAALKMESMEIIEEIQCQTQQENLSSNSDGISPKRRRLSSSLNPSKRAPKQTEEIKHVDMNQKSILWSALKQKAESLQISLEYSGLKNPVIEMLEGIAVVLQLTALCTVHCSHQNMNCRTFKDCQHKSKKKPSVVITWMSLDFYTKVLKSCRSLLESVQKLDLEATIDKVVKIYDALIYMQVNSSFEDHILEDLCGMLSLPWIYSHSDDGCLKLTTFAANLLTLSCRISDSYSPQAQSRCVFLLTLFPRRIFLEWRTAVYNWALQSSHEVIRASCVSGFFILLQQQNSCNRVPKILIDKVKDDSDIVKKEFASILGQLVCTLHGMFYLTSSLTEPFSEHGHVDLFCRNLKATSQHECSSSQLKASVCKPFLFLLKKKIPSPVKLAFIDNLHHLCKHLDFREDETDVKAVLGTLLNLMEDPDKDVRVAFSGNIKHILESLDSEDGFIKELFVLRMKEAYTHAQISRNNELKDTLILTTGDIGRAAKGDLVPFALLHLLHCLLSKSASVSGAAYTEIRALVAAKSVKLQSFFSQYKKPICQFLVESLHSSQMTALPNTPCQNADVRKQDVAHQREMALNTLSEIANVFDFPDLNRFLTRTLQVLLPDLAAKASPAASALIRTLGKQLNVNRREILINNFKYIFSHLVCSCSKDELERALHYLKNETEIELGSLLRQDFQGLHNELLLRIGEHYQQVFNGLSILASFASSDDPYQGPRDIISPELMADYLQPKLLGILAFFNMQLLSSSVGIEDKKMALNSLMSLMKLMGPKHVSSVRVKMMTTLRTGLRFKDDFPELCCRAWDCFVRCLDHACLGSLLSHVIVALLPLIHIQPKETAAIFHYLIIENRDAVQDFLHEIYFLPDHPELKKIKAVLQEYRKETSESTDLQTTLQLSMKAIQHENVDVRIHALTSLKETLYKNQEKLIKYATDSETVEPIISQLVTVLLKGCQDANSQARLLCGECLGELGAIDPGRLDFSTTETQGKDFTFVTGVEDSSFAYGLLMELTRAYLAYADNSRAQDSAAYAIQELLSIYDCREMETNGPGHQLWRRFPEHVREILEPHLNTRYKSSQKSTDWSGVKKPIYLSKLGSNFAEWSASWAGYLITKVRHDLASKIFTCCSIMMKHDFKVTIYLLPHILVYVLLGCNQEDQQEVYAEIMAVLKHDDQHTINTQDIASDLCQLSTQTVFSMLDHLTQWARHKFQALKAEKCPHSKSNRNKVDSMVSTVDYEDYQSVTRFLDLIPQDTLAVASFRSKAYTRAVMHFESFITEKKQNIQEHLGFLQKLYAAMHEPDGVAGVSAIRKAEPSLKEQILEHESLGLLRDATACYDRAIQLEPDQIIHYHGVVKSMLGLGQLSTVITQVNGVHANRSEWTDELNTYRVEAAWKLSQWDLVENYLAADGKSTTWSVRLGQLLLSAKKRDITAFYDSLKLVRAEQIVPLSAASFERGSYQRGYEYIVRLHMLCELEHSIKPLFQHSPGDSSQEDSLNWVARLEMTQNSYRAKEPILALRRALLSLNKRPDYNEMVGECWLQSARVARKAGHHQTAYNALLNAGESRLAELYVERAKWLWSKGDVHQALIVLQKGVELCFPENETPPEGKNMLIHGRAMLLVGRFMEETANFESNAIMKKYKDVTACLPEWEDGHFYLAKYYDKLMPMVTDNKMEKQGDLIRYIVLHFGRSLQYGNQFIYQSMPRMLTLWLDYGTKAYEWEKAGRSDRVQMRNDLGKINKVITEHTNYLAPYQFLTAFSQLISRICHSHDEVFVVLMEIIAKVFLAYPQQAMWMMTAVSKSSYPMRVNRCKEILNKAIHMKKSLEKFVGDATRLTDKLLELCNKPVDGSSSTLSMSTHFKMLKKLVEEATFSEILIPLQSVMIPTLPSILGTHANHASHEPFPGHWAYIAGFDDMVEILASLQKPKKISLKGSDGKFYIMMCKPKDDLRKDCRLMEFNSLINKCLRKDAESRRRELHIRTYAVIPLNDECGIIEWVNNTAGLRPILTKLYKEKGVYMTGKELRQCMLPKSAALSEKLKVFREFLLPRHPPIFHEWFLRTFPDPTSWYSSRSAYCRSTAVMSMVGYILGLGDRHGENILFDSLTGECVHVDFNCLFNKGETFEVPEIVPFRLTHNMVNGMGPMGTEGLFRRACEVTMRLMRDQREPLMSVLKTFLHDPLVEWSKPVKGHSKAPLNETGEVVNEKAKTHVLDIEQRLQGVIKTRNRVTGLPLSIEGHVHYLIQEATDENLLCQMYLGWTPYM
row,SMILES,Ki [nM]
1,"COCCOC(=O)N1CCN(c2cnc(N)c(C(=O)Nc3ccccn3)n2)CC1 [Compound I-237, 2-methoxyethyl 4-(5-amino-6-(pyridin-2-ylcarbamoyl)pyrazin-2-yl)piperazine-1-carboxylate]",1000 to 10000
2,"Cc1ccc2nc(-c3nc(N4CCCC(N(C)C)C4)cnc3N)[nH]c2c1 (stereo not drawn) [Compound I-51, 5-(3-(dimethylamino)piperidin-1-yl)-3-(6-methyl-1H-benzo[d]imidazol-2-yl)pyrazin-2-amine]",1000 to 10000
3,"CCS(=O)(=O)N1CCN(c2cnc(N)c(-c3cc4ccccc4[nH]3)n2)CC1 [Compound I-61, 5-(4-(ethylsulfonyl)piperazin-1-yl)-3-(1H-indol-2-yl)pyrazin-2-amine]",1000 to 10000
4,"Nc1ncc(N2CCN(C(=O)COc3ccccc3)CC2)nc1-c1nc2ccccc2[nH]1 [Compound I-273, 1-(4-(5-amino-6-(1H-benzo[d]imidazol-2-yl)pyrazin-2-yl)piperazin-1-yl)-2-phenoxyethanone]",1000 to 10000
5,"CCNC(=O)[C@@H]1CCCN1c1cnc(N)c(-c2nnc(-c3ccc(CNC)cc3)o2)n1 [Compound I-348, (25)-1-[5-Amino-6-[5-[4-(methylaminomethyl)phenyl]-1,3,4-oxadiazol-2-yl]pyrazin-2-yl]-N-ethyl-pyrrolidine-2-carboxamide]",1000 to 10000
6,"CCS(=O)(=O)N1CCN(c2cnc(N)c(-c3nnc(-c4c(F)cccc4F)o3)n2)CC1 [Compound I-289, 3-[5-(2,6-difluorophenyl)-1,3,4-oxadiazol-2-yl]-5-(4-ethylsulfonylpiperazin-1-yl)pyrazin-2-amine]",100 to 1000
7,"CN(C)S(=O)(=O)N1CCN(c2cnc(N)c(-c3nnc(-c4ccccc4)o3)n2)CC1 [Compound I-83, 4-(5-amino-6-(5-phenyl-1,3,4-oxadiazol-2-yl)pyrazin-2-yl)-N,N-dimethylpiperazine-1-sulfonamide]",100 to 1000
8,"Nc1ncc(N2CCN(C(=O)COc3ccccc3)CC2)nc1C(=O)Nc1ccccn1 [Compound I-143, 3-amino-6-(4-(2-phenoxyethanoyl)piperazin-1-yl)-N-(pyridin-2-yl)pyrazine-2-carboxamide]",1000 to 10000
9,"Nc1ncc(N2CCN(S(=O)(=O)C3CCCC3)CC2)nc1-c1nnc(-c2ccccc2)o1 [Compound I-92, 5-(4-(cyclopentylsulfonyl)piperazin-1-yl)-3-(5-phenyl-1,3,4-oxadiazol-2-yl)pyrazin-2-amine]",100 to 1000
10,"CS(=O)(=O)CCN1CCN(c2cnc(N)c(-c3nnc(-c4ccccc4)o3)n2)CC1 [Compound I-296, 5-[4-(2-methylsulfonylethyl)piperazin-1-yl]-3-(5-phenyl-1,3,4-oxadiazol-2-yl)pyrazin-2-amine]",100 to 1000
11,"COC(=O)N1CCN(c2cnc(N)c(-c3nnc(-c4ccccc4)o3)n2)CC1 [Compound I-225, methyl 4-(5-amino-6-(5-phenyl-1,3,4-oxadiazol-2-yl)pyrazin-2-yl)piperazine-1-carboxylate]",100 to 1000
12,"Cc1ccc2nc(-c3nc(N4CCN(C(=O)c5ccco5)CC4)cnc3N)[nH]c2c1 [Compound I-53, (4-(5-amino-6-(6-methyl-1H-benzo[d]imidazol-2-yl)pyrazin-2-yl)piperazin-1-yl)(furan-2-yl)methanone]",100 to 1000
13,"CNCc1ccc(-c2nnc(-c3nc(N4C[C@@H]5C(C(=O)O)[C@@H]5C4)cnc3N)o2)cc1 (stereo partly drawn) [Compound I-349, (1R,5S)-3-[5-Amino-6-[5-[4-(methylaminomethyl)phenyl]-1,3,4-oxadiazol-2-yl]pyrazin-2-yl]-3-azabicyclo[3.1.0]hexane-6-carboxylic acid]",100 to 1000
14,"CCS(=O)(=O)N1CC=C(c2cnc(N)c(C(=O)Nc3cnccn3)n2)CC1 [Compound I-170, 3-amino-6-(1-(ethylsulfonyl)-1,2,3,6-tetrahydropyridin-4-yl)-N-(pyrazin-2-yl)pyrazine-2-carboxamide]",100 to 1000
15,"Nc1ncc(C2=CCN(C(=O)N3CCOCC3)CC2)nc1-c1nc2ccccc2[nH]1 [Compound I-227, (4-(5-amino-6-(1H-benzo[d]imidazol-2-yl)pyrazin-2-yl)-5,6-dihydropyridin-1(2H)-yl)(morpholino)methanone]",100 to 1000

# Now from value to compound:
row,Ki [nM],SMILES
1,< 100,"CNCc1ccc(-c2nnc(-c3nc(N4CCC(c5ccccc5)C4)cnc3N)o2)cc1 (stereo not drawn) [Compound I-316, 3-[5-[4-(Methylaminomethyl)phenyl]-1,3,4-oxadiazol-2-yl]-5-(3-phenylpyrrolidin-1-yl)pyrazin-2-amine]"
2,< 100,"Nc1ncc(C2=CCN(S(=O)(=O)c3ccsc3)CC2)nc1-c1nc2ccccc2[nH]1 [Compound I-105, 3-(1H-benzo[d]imidazol-2-yl)-5-(1-(thiophen-3-ylsulfonyl)-1,2,3,6-tetrahydropyridin-4-yl)pyrazin-2-amine]"
3,100 to 1000,"CCS(=O)(=O)N1CCN(c2cnc(N)c(-c3nc(-c4ccccc4)no3)n2)CC1 [Compound I-19, 5-(4-(ethylsulfonyl)piperazin-1-yl)-3-(3-phenyl-1,2,4-oxadiazol-5-yl)pyrazin-2-amine]"
4,100 to 1000,"CN(C)C(=O)N1CCN(c2cnc(N)c(C(=O)Nc3ccccn3)n2)CC1 [Compound I-229, 3-amino-6-(4-(dimethylcarbamoyl)piperazin-1-yl)-N-(pyridin-2-yl)pyrazine-2-carboxamide]"
5,100 to 1000,"CCC(=O)N1CCN(c2cnc(N)c(-c3nnc(-c4ccc(CNC)cc4)o3)n2)[C@H](C)C1 [Compound I-359, (R)-1-(4-(5-Amino-6-(5-(4-((methylamino)methyl)phenyl)-1,3,4-oxadiazol-2-yl)pyrazin-2-yl)-3-methylpiperazin-1-yl)propan-1-one]"
6,100 to 1000,"Nc1ncc(N2CCN(C(=O)c3c(F)cccc3F)CC2)nc1C(=O)Nc1ccccn1 [Compound I-149, 3-amino-6-(4-(2,6-difluorophenylcarbonyl)piperazin-1-yl)-N-(pyridin-2-yl)pyrazine-2-carboxamide]"
7,100 to 1000,"CC#CCOC(=O)N1CC=C(c2cnc(N)c(-c3nc4ccccc4[nH]3)n2)CC1 [Compound I-254, but-2-ynyl 4-(5-amino-6-(1H-benzo[d]imidazol-2-yl)pyrazin-2-yl)-5,6-dihydropyridine-1(2H)-carboxylate]"
8,100 to 1000,"CCNC(=O)C1CC1c1cnc(N)c(-c2nnc(-c3ccc(CNC)cc3)o2)n1 (stereo not drawn) [Compound I-375, 2-[5-Amino-6-[5-[4-(methylaminomethyl)phenyl]-1,3,4-oxadiazol-2-yl]pyrazin-2-yl]-N-ethyl-cyclopropanecarboxamide]"
9,100 to 1000,"CNCc1ccc(-c2nnc(-c3nc(N4CCC[C@H]4C)cnc3N)o2)cc1 [Compound I-362, 3-[5-[4-(Methylaminomethyl)phenyl]-1,3,4-oxadiazol-2-yl]-5-[(2R)-2-methylpyrrolidin-1-yl]pyrazin-2-amine]"
10,< 100,"Nc1ncc(-n2ccc(=O)cc2)nc1-c1nc2ccccc2[nH]1 [Compound I-311, 1-[5-amino-6-(1H-benzimidazol-2-yl)pyrazin-2-yl]pyridin-4-one]"
11,< 100,"CC(=O)N1CC=C(c2cnc(N)c(-c3nc4ccccc4[nH]3)n2)CC1 [Compound I-136, 1-(4-(5-amino-6-(1H-benzo[d]imidazol-2-yl)pyrazin-2-yl)-5,6-dihydropyridin-1(2H)-yl)ethanone]"
12,100 to 1000,"Nc1ncc(N2CCN(S(=O)(=O)c3cccs3)CC2)nc1-c1nc2ccccc2[nH]1 [Compound I-104, 3-(1H-benzo[d]imidazol-2-yl)-5-(4-(thiophen-2-ylsulfonyl)piperazin-1-yl)pyrazin-2-amine]"
13,100 to 1000,"Nc1ncc(N2CCN(S(=O)(=O)c3cccs3)CC2)nc1-c1nnc(-c2ccccc2)o1 [Compound I-96, 3-(5-phenyl-1,3,4-oxadiazol-2-yl)-5-(4-(thiophen-2-ylsulfonyl)piperazin-1-yl)pyrazin-2-amine]"
14,100 to 1000,"Nc1ncc(C2=CCN(c3ccccc3)CC2)nc1-c1nc2ccccc2[nH]1 [Compound I-159, 3-(1H-benzo[d]imidazol-2-yl)-5-(1-phenyl-1,2,3,6-tetrahydropyridin-4-yl)pyrazin-2-amine]"
15,100 to 1000,"CC(C)C(=O)N1CC=C(c2cnc(N)c(-c3nc4ccccc4[nH]3)n2)CC1 [Compound I-293, 1-[4-[5-amino-6-(1H-benzimidazol-2-yl)pyrazin-2-yl]-3,6-dihydro-2H-pyridin-1-yl]-2-methyl-propan-1-one]"
16,< 100,"Nc1ncc(C2=CCN(S(=O)(=O)C3CC3)CC2)nc1-c1nnc(-c2ccccc2)o1 [Compound I-122, 5-(1-(cyclopropylsulfonyl)-1,2,3,6-tetrahydropyridin-4-yl)-3-(5-phenyl-1,3,4-oxadiazol-2-yl)pyrazin-2-amine]"
17,< 100,"Nc1ncc(C2=CCN(C(=O)N3CCOCC3)CC2)nc1-c1nnc(-c2ccccc2)o1 [Compound I-217, (4-(5-amino-6-(5-phenyl-1,3,4-oxadiazol-2-yl)pyrazin-2-yl)-5,6-dihydropyridin-1(2H)-yl)(morpholino)methanone]"
18,< 100,"CCS(=O)(=O)N1CC=C(c2cnc(N)c(C(=O)Nc3cccnc3OC)n2)CC1 [Compound I-165, 3-amino-6-(1-(ethylsulfonyl)-1,2,3,6-tetrahydropyridin-4-yl)-N-(2-methoxypyridin-3-yl)pyrazine-2-carboxamide]"
